The results in this text go back to patent US11272706B2, “Anti-resistance method” (UPL LIMITED, priority 2017, dated 2022).

One assay relates to wheat leaf spots. The experiment in a line: Control of wheat leaf spots by DMI + QoI mixtures with or without mancozeb. The format is in vivo, Drechsiera tritici-repentis. Conditions: various locations in Brazil. An excerpt: (§1) However, its greatest contribution was proven when added to commercial blends bringing control to values of up to 80%, similar efficiency of mixtures “triazole+strobilurin” at the beginning of its use.
With the addition of mancozeb, by using the method anti-resistance described in the present invention, the control has been quite improved (33.3% also as shown in Table 8).

A further assay relates to soybean rust. The assay can be described thus: Field experiments at various locations in Brazil: mancozeb alone or added to commercial mixtures against soybean rust. The format is in vivo, Phakopsora pachyrhizi. Conditions: mancozeb applied alone.
Source text: as §1
Therefore, the present invention used the same strategy as the solution to recover the original control levels (>80%) and make the useful life of the fungicides longer in controlling the target disease of the invention. This is because, mancozeb, being a multi-site protective fungicide and presenting a broad spectrum of action, will also contribute to the control of other diseases in soybean and also in wheat.
A study was conducted to determine the contribution of the mancozeb addition to mixtures of “strobilurin+triazoles.” The experiments were conducted in the field, in nine different locations, where it was determined the fungi toxicity of mancozeb to soybean rust.
Two doses were tested (1.5 and 2.0 kg/ha) with various numbers of mancozeb applications. The effect of mancozeb (1.5 kg/ha), incorporated into commercial mixtures was also tested.
The experiments were conducted with soybean cultivar Monsoy 9144 RR. Mancozeb formulation 750 WDG (water dispersible granules) was used, commercially available, for application of mancozeb according to Tables 6 and 7.

Consider “manganese ethylene bis(dithiocarbamate)+Zn [mancozeb]”, for which, in the assay on wheat leaf spots, the “Control of yellow spot of wheat leaf, applied alone” value is “showed the efficiency”. Further, the “Control of soybean rust, applied alone” value in the assay on soybean rust is listed as “showed the efficiency”.
